Experimental data: article PMC7515829, “HKDC1 C-terminal based peptides inhibit extranodal natural killer/T-cell lymphoma by modulation of mitochondrial function and EBV suppression” (Leukemia, 2020)

Key:
SNK6 cells [1] = test: γH2AX formation (western blot); type: cell-based, human; conditions: 0.5 µM peptide, 6 h, vs CTL, n = 5 (Fig. 3d)
Experimental: Measurement of DNA breaks. 8-OHdG formation was measured using an OxiSelect™ Oxidative DNA Damage ELISA Kit (Cat No. STA320, from Cell Biolabs Inc.) per manufacturers’ instructions. The formation of γH2AX was measured from nuclear extracts by western blotting using H2AX as the input control (8).

ABCB1 = test: mRNA level by qPCR in SNK6 cells; type: cell-based, human; conditions: 0.5 µM peptide, 6 h, vs CTL, n = 4 (Fig. 3f)
Experimental: Fig. 3 Peptide for the last eight aa of HKDC1 at the C-terminal (Tf-D-HKC8) inhibits EBV replication and P-gp expression through ROS generation and DNA damage in ENKTL cells. SNK6 cells were treated with control (CTL), Tf-D-HKN15, Tf-D-HKC15, or Tf-D-HKC8 peptide (0.5 µM) for 6 h and the cells were used for biomedical analysis. a ROS formation, n = 5. b 3-nitrotyrosine (3-NT) formation, n = 5. c 8-OHdG formation, n = 5. d Quantitation of γH2AX formation, n = 5. e Representative western blotting bands for d. f mRNA level by qPCR for BZLF1, BMRF1, and ABCB1, n = 4. g Protein quantitation for Zta, EA-D, and P-gp, n = 5. h Representative pictures of western blots for g. i EBV viral genomes/cell by qPCR, n = 4. *P < 0.05, vs CTL group; ^¶P < 0.05, vs Tf-D-HKC15 group. Results were expressed as mean ± SEM.

EBV = EBV viral genomes/cell by qPCR in SNK6 cells; type: cell-based; conditions: 0.5 µM peptide, 6 h, vs CTL, n = 4 (Fig. 3i)
Experimental: Detection of EBV copy number. Genomic DNA was extracted from treated SNK-6 cells or SNK-6 tumor tissue in mice using a QIAamp DNA Mini Kit (Qiagen). The EBV DNA copy number was measured through qPCR using 50ng of total DNA with EBV BMRF1 primers (see Table 1), and the results were normalized using cellular β-actin (primers see Table 1) as an internal control (13, 14). The Namalwa cell line, which contains 2 EBV viral genome copies, was used as a standard to prepare calibration curves for both EBV BMRF1 and β-actin genes, and the EBV viral load was presented as the number of viral genomes per cell (15, 16).

SNK6 cells [2] = test: Intracellular ATP level (luciferin/luciferase); type: cell-based, human; conditions: 0.5 µM peptide, 6 h, vs CTL, n = 5 (Fig. 4g)
Experimental: Measurement of mitochondrial function. Intracellular ATP level was determined using the luciferin/luciferase-induced bioluminescence system. An ATP standard curve was generated at concentrations of 10^-12-10^-3M, and intracellular ATP levels were calculated and expressed as nmol/mg protein. Mitochondrial membrane potential (Δψm) was measured using TMRE (from Molecular Probes T-669) staining. A 600μM T-669 stock solution was prepared using DMSO. Cells were grown on coverslips and immersed in 600nM TMRE for 20 min at 37°C to load them with dye. The labeling medium was then aspirated and the cells were immersed in 150nM TMRE to maintain an equal distribution of the fluorophore. The coverslips were mounted with live cells onto confocal microscopes to image the cells using 548nm excitation/573nm emission filters, and the intensity of TMRE fluorescence was measured using Image J software. Data from 10-20 cells were collected for each experimental condition and mean values of fluorescence intensity ± SEM were calculated (12).

SNK6 cells [3] = conditions: 0.5 µM peptide, 6 h, vs CTL, n = 3 (Fig. 5g)
Experimental: Immunostaining. […] The cells were then washed three times and the FITC labeled anti-mouse secondary antibody (1:100) was added for blotting for another 1 hour. After thorough washing, the slides were visualized and photographed, the nuclei of cells were stained with 4’,6-diamidino-2-phenylindole dihydrochloride (DAPI, #D9542, from Sigma), and the positive Ki-67 cells were quantitated.

EBV Zta = test: Protein level in xenograft tumor tissue (western blot); type: in vivo; conditions: SNK6 xenograft, Balb/c athymic nude mice; intratumoral 50 µM peptide, 20 µl per tumor, every 2 days from day ~18; tissue day 50; western blot vs CTL; n = 5
Text: (§1) Biomedical analysis of tumor tissues.

EBV EA-D = test: as above; type: in vivo, mouse; conditions: SNK6 xenograft, nude mice; intratumoral 50 µM peptide every 2 days from day ~18; tissue day 50; western blot vs CTL; n = 5
Text: as §1

P-gp = test: as above; type: in vivo, mouse; conditions: SNK6 xenograft, nude mice; intratumoral 50 µM peptide every 2 days from day ~18; tissue day 50; western blot vs CTL; n = 5
Text: as §1

SNK6 xenograft = test: Tumor growth by H&E staining (tumor spots); type: in vivo, mouse; conditions: nude mice, intratumoral 50 µM peptide every 2 days from day ~18, tissue day 50, vs CTL, n = 5
Text: as §1

HKDC1/VDAC1 = HKDC1/VDAC1 (Homo sapiens, UniProt P21796); test: IP/WB HKDC1 binding with VDAC1 in xenograft tumor tissue; type: in vivo, mouse; set-up: from tissue; host or cells: SNK6 xenograft tumor tissue from Balb/c athymic nude mice; conditions: SNK6 xenograft, nude mice; intratumoral 50 µM peptide every 2 days from day ~18; tissue day 50; IP/WB vs CTL; n = 5
Chain of HKDC1/VDAC1 (P21796 2-283 limits assumed): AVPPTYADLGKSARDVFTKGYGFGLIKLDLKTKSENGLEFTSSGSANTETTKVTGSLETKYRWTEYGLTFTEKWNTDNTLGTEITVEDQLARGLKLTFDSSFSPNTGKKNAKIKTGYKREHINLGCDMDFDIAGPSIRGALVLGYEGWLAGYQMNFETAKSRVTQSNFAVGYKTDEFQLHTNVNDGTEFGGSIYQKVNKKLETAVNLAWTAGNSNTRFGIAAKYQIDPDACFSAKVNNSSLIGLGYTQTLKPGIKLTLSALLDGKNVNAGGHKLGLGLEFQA
Experimental: Immunoprecipitation (IP) and Western Blotting (WB). Cell lysates were pre-cleared by pre-immune IgG plus Protein A agarose beads for 2 hours, and the supernatants were immunoprecipitated by the indicated antibodies and a 50% slurry of Protein A Agarose beads overnight at 4 °C (9). After washing with buffer containing 50 mM Tris, pH 7.5, 150 mM NaCl, 1% NP-40, and 0.5% deoxycholate with protease inhibitors, proteins were released, separated on 10% SDS-PAGE gels, blotted by primary antibodies, and then simultaneously incubated with the differentially labeled species-specific secondary antibodies, anti-RABBIT IRDye™ 800CW (green) and anti-MOUSE (or goat) ALEXA680 (red). Membranes were scanned and quantitated by the ODYSSEY Infrared Imaging System (LI-COR, NE) (10).
as §1

Row | Substance | γH2AX formation (SNK6 cells [1]) [%] | ABCB1 mRNA (ABCB1) [%] | EBV genome copies (EBV) [%] | intracellular ATP generation (SNK6 cells [2]) [%] | cell proliferation by quantitation of Ki-67 positive cells (SNK6 cells [3]) [%] | EBV Zta protein levels in tumor (EBV Zta) [%] | EBV EA-D protein in tumor (EBV EA-D) [%] | P-gp protein in tumor (P-gp) [%] | tumor growth using H&E staining (tumor spots) (SNK6 xenograft) [%] | HKDC1 binding with VDAC1 in tumor (HKDC1/VDAC1) [%]
1 | HAIYPRH-ITAVAKRLQQAQKEN [Tf-D-HKC15] | 144 | 58 | 62 | 61 | 70 | 65 | 61 | 48 | 56 | 71
2 | HAIYPRH-LQQAQKEN [Tf-D-HKC8] | 189 | 27 | 21 | 30 | 27 | 32 | 38 | 17 | 23 | 38
